# Experimental data reported in patent US9133164B2, “MIF inhibitors and their uses” (INNOV88 LLC, priority 2011, dated 2015).
# Read-outs that look alike come from different tables or passages of the source.
# Assays:
# [1] = system: LPS-stimulated PBMCs; experiment: Cytokine production in LPS-stimulated human PBMCs (ELISA); assay type: cell-based; settings: for inhibition at 2.5 µM / inhibition at 25 µM: Homo sapiens, PBMC
# From the text: (§1) MIF is secreted by monocytes/macrophages, activated T cells and several effector cells that play an important role in the perpetuation of inflammatory responses of the disease pathogenesis of several autoimmune and inflammatory disorders. MIF promotes the production of proinflammatory mediators such as tumor necrosis factor-α (TNF-α), interleukin (IL)-1β, IL-6 and IL-8 acting in an autocrine and paracrine function in the induction of proinflammatory responses. MIF has also been reported to stimulate the production of IL-17, a T helper 17 (Th17)-specific cytokine critical to the pathogenesis of several autoimmune and inflammatory diseases. […] Mono-Mac-6 Cells: The cellular efficacy of compound candidates is determined using the human monocytic cell line, Mono-Mac-6 cells (MM6 cells) as it has been shown that MM6 cells abundantly express MIF receptors CD74 and CXCR4. MIF-mediated signal transduction through these receptors may be important for the production of inflammatory mediators, including TNF-α, IL-1β, IL-6, IL-8, interferon-γ (IFN-γ) and prostaglandin E2 (PGE2) in these cells. To induce the production of inflammatory mediators, MM6 cells will be plated at a final concentration of 5×10^5 cells/ml in RPMI 1640 medium containing 1% heat-inactivated low-pyrogen fetal bovine serum, 2 mM GlutaMAX-I, 1% non-essential amino acids, 1% sodium pyruvate, 100 units/ml penicillin G and 100 μg/ml streptomycin (Gibco BRL Life Technologies). Cells will be stimulated with 100 ng/ml rhMIF purchased commercially or generated in house with or without inhibitor for 20 h at 37° C. with 5% CO2. The supernatants are stored at […] until they are to be assayed. The levels of inflammatory mediators will be determined using commercial :ELISA kits (eBiosciences). Human Peripheral Blood Mononuclear Cells (PBMCs): The cellular efficacy of compound candidates in inhibiting the production of proinflammatory mediators TNF-α, IL-1β, IL-6 and IL-8 following lipopolysaccharide (LPS) and rhMIF stimulation, and the production of T helper 17 (Th17)-specific cytokines IL-17F and IL-22 following anti-CD3/anti-CD28 stimulation, are determined in human PBMCs. To induce the production of proinflammatory cytokine mediators, cryopreserved human PBMCs (Cellular Technology Ltd.) are plated at a final concentration of 2×10^5 cells/ml in RPMI 1640 medium containing 1% heat-inactivated fetal bovine serum, 1% L-Glutamine and 1% Penicillin/Streptomycin (Lonza). Cells are pre-incubated with or without inhibitor compounds dissolved in DMSO for 1 hour, then stimulated with LPS (Sigma Aldrich) or rhMIF to yield final concentrations of <0.1% DMSO, 100 ng/ml LPS and the compound concentration of interest. The potency of the compound candidates in inhibiting cytokine production is compared, to other small molecule MIF inhibitor standards ISO-1 (EMD Chemicals) N-acetyl-p-benzoquinone imine (NAPQI) and Ibudilast (TCI America). Cells were incubated for 20 hours at 37° C., 5% CO2. For the Th17-specific cytokine production assay, cells are stimulated with 5 ug/mL plate immobilized anti-CD3 (eBioscience) and 2 ug/mL soluble anti-CD28 (eBioscience) in the presence or absence of inhibitor compounds dissolved in DMSO to yield final compound concentrations of interest at <0.1% DMSO. Cells were incubated for 72 hours at 37° C. and 5% CO2. The supernatants are stored at −20° C. until they are to be assayed by ELISA. Cell viability is determined using PrestoBlue™ Cell Viability Reagent (Invitrogen). The cytokine production levels of TNF-α, IL-1β, IL-6, IL-8, IL-17F and IL-22 are determined using commercial ELISA kits (eBiosciences). Human Rheumatoid Arthritis Synovial Fibroblast (RASF) Cell Line: RASF cells are cultured in Dulbecco's modified Eagle's medium with 15% FBS, 1% glutamine, and 1% penicillin/streptamycin (all from Gibco (Invitrogen), Gaithersburg, Md.). […]
# [2] = target: T1, Native human MIF (Homo sapiens, UniProt P14174); experiment: MIF tautomerase activity assay (HPP substrate); assay type: biochemical; settings: absorbance at 300 nm
# T1 sequence (P14174 2-115 limits assumed): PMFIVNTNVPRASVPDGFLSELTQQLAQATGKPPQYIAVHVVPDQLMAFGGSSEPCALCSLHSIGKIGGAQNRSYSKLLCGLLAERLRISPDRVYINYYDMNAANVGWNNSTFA
# Method: (§2) The ability of candidate compounds to inhibit this tautomerase activity is quantitated by wing hydroxyphenyl pyruvic acid (HPP) as a substrate and following the increase in absorbance due to the enzymatic formation of the HPP enol-borate complex at 300 nm in the absence and presence of a test compound. The IC50 value of compounds was determined by plotting the initial velocities determined at 300 nm as a function of a test compound's concentration. Assays were carried out in a 96 or 384 well plate format.
# Representative MIF inhibitors were tested in the assay described above and the results tabulated in Table 1 wherein “A” represents ≦1 μM; “B” represents >1 μM and ≦100 μM; “C” represents >100 μM
# [3] = system: anti-CD3/anti-CD28-stimulated PBMCs; experiment: Th17-specific cytokine production in anti-CD3/anti-CD28-stimulated human PBMCs (ELISA); assay type: cell-based; settings: PBMC, compound at 2.5 uM, 72 hours
# From the text: as §1, with “Cells are pre-incubated with or without inhibitor compounds dissolved in DMSO for 1 hour, then stimulated with LPS (Sigma Aldrich) or rhMIF to yield final concentrations of <0.1% DMSO, 100 ng/ml LPS and the compound concentration of interest. The potency of the compound candidates in inhibiting cytokine production is compared, to other small molecule MIF inhibitor standards ISO-1 (EMD Chemicals) N-acetyl-p-benzoquinone imine (NAPQI) and Ibudilast (TCI America). Cells were incubated for 20 hours at 37° C., 5% CO2. For the Th17-specific cytokine production assay, cells are stimulated with 5 ug/mL plate immobilized anti-CD3 (eBioscience) and 2 ug/mL soluble anti-CD28 (eBioscience) in the presence or absence of inhibitor compounds dissolved in DMSO to yield final compound concentrations of interest at <0.1% DMSO. Cells were incubated for 72 hours at 37° C. and 5% CO2. The supernatants are stored at −20° C. until they are to be assayed by ELISA.” left out, “(eBiosciences).” for “(eBiosciences). Human Rheumatoid Arthritis Synovial Fibroblast (RASF) Cell Line: RASF cells are cultured in Dulbecco's modified Eagle's medium with 15% FBS, 1% glutamine, and 1% penicillin/streptamycin (all from Gibco (Invitrogen), Gaithersburg, Md.).”
# [4] = target: T2, MIF (Homo sapiens, UniProt P14174); experiment: Time dependence in the MIF tautomerase activity assay (preincubation); assay type: biochemical
# T2 sequence (P14174 2-115 limits assumed): T1 sequence (P14174 2-115 limits assumed)
# Method: as §2
# The MIF tautomerase and cytokine inhibitor Compound 1 was designed as a potential irreversible inhibitor of MIF tautomerase activity. In an effort to investigate this mechanism, time dependent inhibitor analysis was carried out. In this experiment MIF was preincubated [P.I.] with Compound 1 for either 0 minutes, 20 minutes or 60 minutes followed by tautomerase enzyme activity determination.
# Compound 1 was preincubated with MIF as indicated (0 min-60 min) and, a tautomerase dose-response analysis was carried out.
# [5] = read-out: percent inhibition of IL-1β production
# [6] = read-out: percent inhibition of IL-6 production
# [7] = read-out: percent inhibition of IL-8 production
# [8] = read-out: percent inhibition of TNF-α production
# [9] = LPS-stimulated PBMCs, compound at 2.5 uM, 1 hour preincubation, 20 hours, read-out: percent inhibition of IL-1β production
# [10] = LPS-stimulated PBMCs, compound at 2.5 uM, 1 hour preincubation, 20 hours, read-out: percent inhibition of IL-6 production
# [11] = LPS-stimulated PBMCs, compound at 2.5 uM, 1 hour preincubation, 20 hours, read-out: percent inhibition of IL-8 production
# [12] = LPS-stimulated PBMCs, compound at 2.5 uM, 1 hour preincubation, 20 hours, read-out: percent inhibition of TNF-α production
# [13] = LPS-stimulated PBMCs, compound at 25 uM, 1 hour preincubation, 20 hours, read-out: percent inhibition of IL-1β production
# [14] = LPS-stimulated PBMCs, compound at 25 uM, 1 hour preincubation, 20 hours, read-out: percent inhibition of IL-6 production
# [15] = LPS-stimulated PBMCs, compound at 25 uM, 1 hour preincubation, 20 hours, read-out: percent inhibition of IL-8 production
# [16] = LPS-stimulated PBMCs, compound at 25 uM, 1 hour preincubation, 20 hours, read-out: percent inhibition of TNF-α production
# [17] = read-out: percent inhibition of IL-17F production
# [18] = read-out: percent inhibition of IL-22 production
# [19] = LPS-stimulated PBMCs, ISO-1 at 5.0 uM, 20 hours
# [20] = LPS-stimulated PBMCs, ISO-1 at 50 uM, 20 hours
Structure (SMILES),IC50 [2] [µM],"inhibition at 2.5 µM [1, 9] [%]","inhibition at 2.5 µM [1, 10] [%]","inhibition at 2.5 µM [1, 11] [%]","inhibition at 2.5 µM [1, 12] [%]","inhibition at 25 µM [1, 13] [%]","inhibition at 25 µM [1, 14] [%]","inhibition at 25 µM [1, 15] [%]","inhibition at 25 µM [1, 16] [%]",also measured
"CC(=O)N=C1C=CC(=O)C=C1 [NAPQI, N-acetyl-p-benzoquinone imine, reference compound]",,,,,,,,,,"inhibition at 2.5 µM [1, 5]: 10 to 50%; inhibition at 25 µM [1, 5]: > 70%; inhibition at 2.5 µM [1, 6]: < 10%; inhibition at 25 µM [1, 6]: < 10%; inhibition at 2.5 µM [1, 7]: < 10%; inhibition at 25 µM [1, 7]: < 10%; inhibition at 2.5 µM [1, 8]: < 10%; inhibition at 25 µM [1, 8]: > 70%"
N#Cc1c(NC2CN(C(=O)c3ccncc3)C2)c2ccccc2n(Cc2ccc(F)cc2)c1=O [Compound 7],≤ 1,50 to 70,10 to 50,< 10,10 to 50,> 70,< 10,< 10,> 70,
Cn1c(=O)c(C#N)c(NC2CCN(C(=O)c3cccs3)CC2)c2ccccc21 [Compound 5],≤ 1,50 to 70,10 to 50,< 10,10 to 50,> 70,< 10,< 10,50 to 70,
"N#Cc1c(NC2CN(C(=O)CCl)C2)c2ccccc2n(Cc2ccc(F)cc2)c1=O [Compound 1, 4-[1-(2-Chloro-acetyl)-azetidin-3-ylamino]-1-(4-fluoro-benzyl)-2-oxo-1,2-dihydro-quinoline-3-carbonitrile]",1 to 100,> 70,10 to 50,10 to 50,10 to 50,> 70,> 70,50 to 70,> 70,"inhibition at 2.5 µM [3, 17]: > 70%; inhibition at 2.5 µM [3, 18]: > 70%; IC50 ([4]; 0 minutes, no preincubation with MIF): 24 µM; IC50 ([4]; 20 minutes preincubation with MIF): 6 µM; IC50 ([4]; 60 minutes preincubation with MIF): 3 µM"
"C=CC(=O)N1CCN(c2c(C#N)c(=O)n(Cc3ccc(F)cc3)c3ccccc23)CC1 [Compound 2, 4-(4-acryloylpiperazin-1-yl)-1-(4-fluorobenzyl)-2-oxo-1,2-dihydroquinoline-3-carbonitrile]",1 to 100,> 70,< 10,< 10,10 to 50,> 70,< 10,< 10,> 70,"inhibition at 2.5 µM [3, 17]: > 70%; inhibition at 2.5 µM [3, 18]: 10 to 50%"
N#Cc1c(NC2CN(C(=O)c3cccs3)C2)c2ccccc2n(Cc2ccc(F)cc2)c1=O [Compound 8],≤ 1,50 to 70,< 10,< 10,10 to 50,> 70,10 to 50,< 10,10 to 50,
Cn1c(=O)c(C#N)c(NC2CN(C(=O)c3cccs3)C2)c2ccccc21 [Compound 6],≤ 1,10 to 50,10 to 50,< 10,10 to 50,10 to 50,10 to 50,< 10,10 to 50,
"C=CC(=O)N1CCC(Nc2c(C#N)c(=O)n(C)c3ccccc23)CC1 [Compound 4, 4-(1-Acryloyl-piperidin-4-ylamino)-1-methyl-2-oxo-1,2-dihydro-quinoline-3-carbonitrile]",> 100,10 to 50,10 to 50,< 10,< 10,50 to 70,< 10,< 10,10 to 50,
"C=CC(=O)N1CC(Nc2c(C#N)c(=O)n(CCOCC)c3ccccc23)C1 [Compound 3, 4-(1-Acryloyl-azetidin-3-ylamino)-1-(2-ethoxy-ethyl)-2-oxo-1,2-dihydro-quinoline-3-carbonitrile]",> 100,50 to 70,< 10,< 10,< 10,10 to 50,< 10,< 10,10 to 50,
"CC(C)C(=O)c1c(C(C)C)nn2ccccc12 [Ibudilast, reference compound]",,50 to 70,< 10,< 10,> 70,> 70,< 10,< 10,> 70,
"COC(=O)CC1CC(c2ccc(O)cc2)=NO1 (stereo not shown) [ISO-1, reference compound]",,,,,,,,,,"percent inhibition of IL-1β production [1, 19]: F (“F” represents >50% inhibition and ≦70% inhibition); percent inhibition of IL-6 production [1, 19]: D (“D” represents ≦10% inhibition); percent inhibition of IL-8 production [1, 19]: D (“D” represents ≦10% inhibition); percent inhibition of TNF-α production [1, 19]: E (“E” represents >10% inhibition and ≦50% inhibition); percent inhibition of IL-1β production [1, 20]: G (“G” represents >70% inhibition); percent inhibition of IL-6 production [1, 20]: F (“F” represents >50% inhibition and ≦70% inhibition); percent inhibition of IL-8 production [1, 20]: E (“E” represents >10% inhibition and ≦50% inhibition); percent inhibition of TNF-α production [1, 20]: G (“G” represents >70% inhibition)"
